# Laboratory results reported in article PMC4138410 (Bioorganic & medicinal chemistry, 2014).
# Like-named read-outs stand apart in the source and are kept apart here.
# Assays:
# [1] = pH 7.4; for %GSH remaining at 30 min: 0.5 h
# [2] = biological target: T1, BoNT/A LC (Clostridium botulinum, UniProt P0DPI0); test: biochemical; format: biochemical
# [3] = biological target: T1, BoNT/A LC; test: biochemical; format: biochemical; remark: listed apart in the source
# [4] = biological target: T1, BoNT/A LC; format: biochemical
# [5] = biological target: T1, BoNT/A LC; format: biochemical; remark: listed apart in the source
# [6] = biological target: BoNT/A; conditions: cited from earlier work
# T1 sequence (P0DPI0 2-425 limits assumed): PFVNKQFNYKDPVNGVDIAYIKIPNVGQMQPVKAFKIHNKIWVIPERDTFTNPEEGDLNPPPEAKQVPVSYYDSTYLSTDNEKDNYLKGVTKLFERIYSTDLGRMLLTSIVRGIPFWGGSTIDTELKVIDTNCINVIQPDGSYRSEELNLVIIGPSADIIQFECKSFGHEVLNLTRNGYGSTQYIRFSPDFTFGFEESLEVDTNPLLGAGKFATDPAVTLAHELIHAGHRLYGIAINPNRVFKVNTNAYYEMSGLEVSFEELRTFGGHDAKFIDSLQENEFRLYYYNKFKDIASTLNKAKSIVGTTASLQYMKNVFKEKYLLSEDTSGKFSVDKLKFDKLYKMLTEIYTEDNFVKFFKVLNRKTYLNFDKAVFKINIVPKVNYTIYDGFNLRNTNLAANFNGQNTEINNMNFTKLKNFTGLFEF
molecule,measurement,setting,value
"O=C1C=C(Cl)C(=O)C=C1Cl [Compound 1, 2,5-diCl-BQ]",%GSH remaining at 10 s,[1]; 10 s,0%
same,%GSH remaining at 30 min,[1],0%
same,effect on catalytic activity (in words),[2],completely abrogated catalytic activity
"O=C1C=CC(=O)C=C1 [Compound 3, BQ]",irreversible/time-dependent inactivation in 66-mer assay (in words),[3],comparable to the SNAPtide assay
"CC1=CC(=O)C=CC1=O [Compound 12, 2-Me-BQ]",kinact/KI,[2],3.5 M⁻¹ s⁻¹
"O=C1C=CC(=O)c2c(O)ccc(O)c21 [Compound 13, 5,8-diOH-NQ]",%GSH remaining at 30 min,[1],39 (26) %
same,%GSH remaining at 1 hour,[1],39 (26) %
"COc1cccc2c1C(=O)C=CC2=O [Compound 18, 5-OMe-NQ]",%GSH remaining at 30 min,[1],27 (14) %
same,%GSH remaining at 1 hour,[1],27 (14) %
"O=C1C=CC(=O)c2cc(O)ccc21 [Compound 19, 6-OH-NQ]",%GSH remaining at 30 min,[1],32 (22) %
same,%GSH remaining at 1 hour,[1],32 (22) %
"COC1=CC(=O)C(OC)=C(c2ccc(C)cc2)C1=O [Compound 21, 2,5-diOMe-3-Tol-BQ]",%GSH remaining at 30 min,[1],49 (35) %
same,%GSH remaining at 1 hour,[1],49 (35) %
"O=C1C=CC(=O)C(CC(=O)O)=C1 [Compound 22, 2-(3,6-Dioxocyclohexa-1,4-dien-1-yl)acetic acid]",kinact/KI,[3],2.5 M⁻¹ s⁻¹
same,inhibition of BoNT/A in 66-mer assay (in words),[4],fairly active
"COC1=CC(=O)C=C(OC)C1=O [Compound 24, 2,6-diOMe-BQ]",%GSH remaining at 30 min,[1],0%
"CC1=CC(=O)C=C(C)C1=O [Compound 25, 2,6-diMe-BQ]",%GSH remaining at 30 min,[1],0%
"NCC(=O)Nc1ccc(Oc2ccccc2)cc1 [Compound 28, 2-Amino-N-(4-phenoxyphenyl)acetamide]",effect on BQ-mediated inactivation of BoNT/A (in words),[5],competed
"O=C1C=CC(=O)C(CNCC(=O)Nc2cccc(OCc3ccccc3)c2)=C1 [Compound 30, N-[3-(Benzyloxy)phenyl]-2-{[(3,6-dioxocyclohexa-1,4-dien-1-yl)methyl]amino}acetamide]",fold increase in potency by addition of BQ vs analogous amino acetamide,[4],26 fold
"O=C1C=CC(=O)C(Nc2cccc(C(=O)NCc3ccc(Oc4ccccc4)cc3)n2)=C1 [Compound 31, 6-[(3,6-Dioxocyclohexa-1,4-dien-1-yl)amino]-N-(4-phenoxybenzyl)picolinamide]",fold increase in activity by adding the phenoxyphenyl fragment,[4],7 fold
same,fold increase in potency by addition of BQ vs analogous amino acetamide,[4],21 fold
"O=C1C=CC(=O)C(Cn2cnc(C(=O)NCc3ccc(-c4ccccc4)cc3)n2)=C1 [Compound 32, N-([1,1′-Biphenyl]-4-ylmethyl)-1-[(3,6-dioxocyclohexa-1,4-dien-1-yl)methyl]-1H-1,2,4-triazole-3-carboxamide]",fold increase in potency by addition of BQ vs analogous amino acetamide,[4],64 fold
"COc1ccc(OC)c(CNCC(=O)Nc2cccc(OCc3ccccc3)c2)c1 [Compound 33, N-[3-(Benzyloxy)phenyl]-2-[(2,5-dimethoxybenzyl)amino]acetamide]",inhibition of BoNT/A in 66-mer assay (in words),[4],well tolerated
"COc1ccc(OC)c(Nc2cccc(C(=O)NCc3ccc(Oc4ccccc4)cc3)n2)c1 [Compound 34, 6-[(2,5-Dimethoxyphenyl)amino]-N-(4-phenoxybenzyl)picolinamide]",inhibition of BoNT/A in 66-mer assay (in words),[4],decrease in activity
"O=C(NCc1ccc(Oc2ccccc2)cc1)c1ccccn1 [Compound 35, N-(4-phenoxybenzyl)picolinamide]",inhibition of BoNT/A in 66-mer assay (in words),[4],high IC50 values
"COc1ccc(OC)c(Cn2cnc(C(=O)NCc3ccc(-c4ccccc4)cc3)n2)c1 [Compound 38, N-([1,1′-Biphenyl]-4-ylmethyl)-1-(2,5-dimethoxybenzyl)-1H-1,2,4-triazole-3-carboxamide]",inhibition of BoNT/A in 66-mer assay (in words),[4],decrease in activity
"O=C(NCc1ccc(-c2ccccc2)cc1)c1nc[nH]n1 [Compound 39, N-([1,1′-Biphenyl]-4-ylmethyl)-1H-1,2,4-triazole-3-carboxamide]",inhibition of BoNT/A in 66-mer assay (in words),[4],high IC50 values
C=CC(=O)Nc1cccnc1 [Compound 41],irreversible/time-dependent inactivation in 66-mer assay (in words),[3],no irreversible inhibition
same,inhibition of BoNT/A in 66-mer assay (in words),[4],weakly inhibited
"CS(=O)(=O)SCCCN [MTSPA, (3-aminopropyl)methanethiosulfonate]",Ki,[6],7.7 µM
"CCN1C(=O)C=CC1=O [N-ethylmaleimide, reference compound]",inactivation of BoNT/A in SNAPtide screen (in words),[2],weakly inactivated
same,inhibitory rank in SNAPtide assay (in words),[2],one of the weakest inhibitors tested
chicoric acid [CA],effect on BQ-mediated inactivation of BoNT/A (in words),[5],not affected
